# Measured values: patent publication US7736848B2, “Cellular targets for treatment of retroviral infection” (Fox Chase Cancer Center, priority 2002, dated 2010)
# How the values were obtained:
# HIV-1 strain NL4-3 = assay: 2-LTR DNA junctions (nuclear import) in NL4-3-infected PBMCs; format: cell-based; details: 24 hours post-infection
# Source text: To determine if methylxanthines altered the nuclear import of HIV-1 pre-integration complexes (PICs), we analyzed the level of 2-LTR DNA junctions in infected cells by a quantitative DNA-PCR technique. […] To normalize the cell number, the human beta-globin gene was used as a standard (Nunnari et al., 2002, supra; Otero et al., 2003, supra).
# ASV vector [1] = assay: Viral DNA synthesis in ASV-infected HeLa cells (real time PCR); format: cell-based; details: up to 4 mM; 24 hr post-infection
# Method: Real Time PCR. Extrachromosomal DNA from infected and uninfected cells was prepared by HIRT extraction. Real-Time PCR amplification, data-acquisition and analysis were preformed with the Cephid Smart Cycler. The Biochemistry and Biotechnology Facility at the Fox Chase Cancer Center prepared the primers using BHQ-1 non-fluorogenic quencher (Biosearch Technologies). Viral sequence primers directed against ASV pol were selected using Primer Express™ (Applied Biosystems) and had the following sequences: Forward primer, 5′-[…]-3′ (SEQ ID NO:1); Reverse primer, 5′-[…]-3′ (SEQ ID NO:2); Probe, 5′-(FAM) CC […] (BHQ)-3′ (SEQ ID NO:3). Results were normalized with those from primers against mitochondrial DNA (Asaad et al., Oncogene 19: 5788-5800, 2000). Each reaction contained 1× Reaction Buffer (20 mM Tris-HCl, pH 8.4), 50 mM KCl), 0.25 mM each dNTP, 2.5 mM MgCl2, 400 nM primers, 200 nM probe and 2.5 U Platinum Taq Polymerase (Invitrogen). Relative quantitation was calculated with the Comparative Cycle Threshold Method using the untreated samples as the reference (User, B. ABI Prism 7700 Sequence Detection System; the Perkin Elmer Corporation, P/N 4303859 Rev. A. Stock No. 77802-001, 1997). […] Relative quantitation was averaged and standard deviations were determined between independent experiments.
# Synthesis of viral DNA was detected by quantitative PCR.
# [2] = test system: primary human macrophages; assay: Cytotoxicity in primary human macrophages; details: conditions of the transduction test
# [3] = test system: neomycin phosphotransferase II; assay: Expression of neo reporter in stably transduced HeLa cells (Western blot); format: cell-based; details: 24 hr, up to 4 mM caffeine
# Method: Western Blot Analyses. […] Cells were then harvested, lysed, and lysates were subjected to electrophoresis in a 10% SDS polyacrylamide gel. The separated proteins were then transferred to a PVDF membrane and the filter was treated with neomycin phosphotransferase II antibody (Upstate Biotech). Bands were detected using a chemi-luminiscence assay.
# HIV-1 NL4-3 (X4) strain = assay: HIV-1 NL4-3 replication in PBMCs (p24 antigen ELISA); format: cell-based; details: 4 mM; for drop in HIV-1 p24 antigen levels: 7 days post-infection; for p24 antigen levels vs control: 12 days post-infection; for decrease in HIV-1 p24 antigen vs NL4-3 infected control: day 3 post-infection; for inhibition of NL4-3 growth: p24 at 6 days post-infection
# mTOR = mTOR (Homo sapiens, UniProt P42345); details: cited from earlier work
# ASV vector [4] = assay: organism not typed; format: cell-based; details: HeLa, 24 h, read-out: inhibition of integration (host-viral junction DNA)
# HIV-1 integrase = biological target: T1, HIV-1 integrase (Human immunodeficiency virus type 1 group M subtype B, UniProt P04585); assay: In vitro integrase activity, HIV-1 integrase; format: biochemical; details: up to 10 mM
# T1 construct: For HIV-1 integrase, reactions contained 1.0 M HIV IN
# Method: For HIV-1 integrase, reactions contained […] HIV IN, 1.0 μM U5 21/21 substrate (Katz & Skalka, Ann. Rev. Biochem. 63: 133-173, 1994; Coffin et al., Retroviruses, Cold Spring Harbor Laboratory, 1997) in 22 mM Hepes, pH 7.5, 5.1 mM DTT, 6% glycerol, 6.66% DMSO, 50 mM KCl and 10 mM MnCl2. Conditions were as described for ASV IN, except that the final incubation time was 60 min.
# HIV-1-based vector [5] = assay: HIV-1 vector transduction of dividing and nocodazole-arrested 293T cells; format: cell-based
# Method: To arrest cells in M phase, cells were treated with nocodazole (1 μg/ml) for 24 hrs prior to addition of the virus. Nocodazole was maintained in the cell culture medium during and after infection. Cells were distributed in a 24-well plate at a density of 5×10^4 cells per well and nocodazole was added to a final concentration of 1 μg/ml. […] Two days post-infection, cells were stained using a β-galactosidase assay (Stratagene according to manufacturer's protocol) and blue cells counted.
# HIV-1-based vector [6] = assay: HIV-1 vector transduction of terminally differentiated primary macrophages; format: cell-based; details: caffeine 24 hrs
# Method: Human peripheral blood mononuclear cells (PBMC) were isolated by centrifugation in Ficoll-Hypaque (Sigma, St. Louis, Mo., USA) from buffy coats of HIV-1 seronegative individuals. Monocyte-derived macrophages (MDM) were obtained from PBMC by adherence to plastic for 12 hours in DMEM supplemented with 10% human serum (Cellgro, Herndon, Va., USA), washed, and cultured in the same medium in the presence of macrophage colony-stimulating factor (MCSF, 2 ng/ml; Sigma, St. Louis, Mo., USA) for another 7-10 days, allowing cells to differentiate before infection. The medium was replaced twice during the incubation period. The primary cells were kept at 37° C. in a humidified incubator with 5% CO2.
# PBMC = details: at the utilized concentration (4 mM)
# ATM kinase = ATM kinase (Homo sapiens, UniProt Q13315); details: in vitro; read-out: IC50 for ATM kinase inhibition; cited from earlier work
# ASV vector [7] = assay: Nuclear import: LTR-LTR circle junctions in ASV-infected HeLa cells; format: cell-based
# 293T cells = assay: Cytotoxicity in 293T cells; details: conditions of the transduction test
# ATR kinase = ATR kinase (Homo sapiens, UniProt Q13535); details: in vitro; read-out: IC50 for ATR kinase inhibition; cited from earlier work
# Chain of ATR kinase (Q13535 whole entry): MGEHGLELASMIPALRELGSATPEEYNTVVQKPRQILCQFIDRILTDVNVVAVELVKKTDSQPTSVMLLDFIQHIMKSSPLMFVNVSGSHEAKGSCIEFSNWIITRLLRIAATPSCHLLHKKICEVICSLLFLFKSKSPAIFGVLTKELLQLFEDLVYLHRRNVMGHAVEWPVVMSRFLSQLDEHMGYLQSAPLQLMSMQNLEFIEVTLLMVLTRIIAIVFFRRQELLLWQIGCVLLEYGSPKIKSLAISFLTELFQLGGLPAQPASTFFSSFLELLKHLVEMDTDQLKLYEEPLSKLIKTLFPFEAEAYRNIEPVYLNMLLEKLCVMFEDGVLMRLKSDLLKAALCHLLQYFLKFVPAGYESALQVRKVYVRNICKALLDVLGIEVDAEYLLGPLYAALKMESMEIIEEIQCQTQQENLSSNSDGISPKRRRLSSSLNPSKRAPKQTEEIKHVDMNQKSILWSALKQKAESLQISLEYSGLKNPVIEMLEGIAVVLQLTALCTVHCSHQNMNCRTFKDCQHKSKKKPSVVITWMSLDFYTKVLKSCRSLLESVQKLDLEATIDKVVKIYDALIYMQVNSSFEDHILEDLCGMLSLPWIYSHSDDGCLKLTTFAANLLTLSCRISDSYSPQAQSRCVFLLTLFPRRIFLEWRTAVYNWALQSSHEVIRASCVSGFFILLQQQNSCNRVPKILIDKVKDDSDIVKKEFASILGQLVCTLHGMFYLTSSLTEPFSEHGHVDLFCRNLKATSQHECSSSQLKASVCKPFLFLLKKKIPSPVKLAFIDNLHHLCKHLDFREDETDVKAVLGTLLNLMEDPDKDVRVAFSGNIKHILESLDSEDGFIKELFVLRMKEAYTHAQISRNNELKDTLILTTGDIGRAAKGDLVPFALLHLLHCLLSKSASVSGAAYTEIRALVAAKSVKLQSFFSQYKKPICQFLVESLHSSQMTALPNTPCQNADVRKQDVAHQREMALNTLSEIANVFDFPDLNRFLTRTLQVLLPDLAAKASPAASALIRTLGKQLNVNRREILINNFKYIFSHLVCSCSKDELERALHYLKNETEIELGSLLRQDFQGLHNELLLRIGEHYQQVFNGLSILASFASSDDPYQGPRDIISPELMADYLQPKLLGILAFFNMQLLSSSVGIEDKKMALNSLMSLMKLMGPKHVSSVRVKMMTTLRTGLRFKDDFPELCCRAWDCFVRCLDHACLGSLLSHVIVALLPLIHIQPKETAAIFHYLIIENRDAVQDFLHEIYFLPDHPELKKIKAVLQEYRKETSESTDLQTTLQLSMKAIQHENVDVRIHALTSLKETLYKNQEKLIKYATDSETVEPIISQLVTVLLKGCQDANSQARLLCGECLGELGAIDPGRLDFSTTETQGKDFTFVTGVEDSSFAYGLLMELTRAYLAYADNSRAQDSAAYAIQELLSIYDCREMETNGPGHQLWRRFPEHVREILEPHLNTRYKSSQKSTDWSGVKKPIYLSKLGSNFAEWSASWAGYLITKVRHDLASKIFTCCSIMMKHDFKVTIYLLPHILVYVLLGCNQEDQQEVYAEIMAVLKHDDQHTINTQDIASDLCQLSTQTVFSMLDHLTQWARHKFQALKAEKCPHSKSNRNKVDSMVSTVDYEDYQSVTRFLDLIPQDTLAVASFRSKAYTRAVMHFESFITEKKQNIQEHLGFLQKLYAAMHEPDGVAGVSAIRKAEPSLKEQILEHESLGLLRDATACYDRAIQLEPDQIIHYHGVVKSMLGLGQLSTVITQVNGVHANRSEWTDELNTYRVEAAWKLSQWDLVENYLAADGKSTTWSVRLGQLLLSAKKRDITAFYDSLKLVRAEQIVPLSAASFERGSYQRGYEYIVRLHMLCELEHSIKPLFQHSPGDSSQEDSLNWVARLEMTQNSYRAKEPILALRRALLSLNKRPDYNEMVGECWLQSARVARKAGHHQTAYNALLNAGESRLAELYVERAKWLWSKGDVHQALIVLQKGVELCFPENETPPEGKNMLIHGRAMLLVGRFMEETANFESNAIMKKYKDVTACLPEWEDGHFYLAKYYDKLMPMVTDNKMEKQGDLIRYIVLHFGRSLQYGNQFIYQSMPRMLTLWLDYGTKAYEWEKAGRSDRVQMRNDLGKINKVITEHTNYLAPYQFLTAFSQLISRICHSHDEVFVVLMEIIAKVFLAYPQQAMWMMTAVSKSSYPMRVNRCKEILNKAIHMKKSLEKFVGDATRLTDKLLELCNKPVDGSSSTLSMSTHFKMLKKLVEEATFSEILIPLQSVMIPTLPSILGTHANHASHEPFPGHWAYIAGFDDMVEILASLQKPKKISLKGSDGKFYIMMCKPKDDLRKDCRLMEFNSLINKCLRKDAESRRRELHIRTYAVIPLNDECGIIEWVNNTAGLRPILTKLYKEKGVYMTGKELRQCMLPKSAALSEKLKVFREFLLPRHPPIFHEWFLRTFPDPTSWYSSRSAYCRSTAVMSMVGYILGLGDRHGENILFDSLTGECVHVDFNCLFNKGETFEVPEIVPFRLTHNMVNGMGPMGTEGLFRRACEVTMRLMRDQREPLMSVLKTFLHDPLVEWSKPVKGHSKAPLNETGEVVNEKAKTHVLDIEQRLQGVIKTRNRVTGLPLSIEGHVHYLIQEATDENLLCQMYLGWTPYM
# Chain of ATR kinase (Q8WXE1 whole entry partner): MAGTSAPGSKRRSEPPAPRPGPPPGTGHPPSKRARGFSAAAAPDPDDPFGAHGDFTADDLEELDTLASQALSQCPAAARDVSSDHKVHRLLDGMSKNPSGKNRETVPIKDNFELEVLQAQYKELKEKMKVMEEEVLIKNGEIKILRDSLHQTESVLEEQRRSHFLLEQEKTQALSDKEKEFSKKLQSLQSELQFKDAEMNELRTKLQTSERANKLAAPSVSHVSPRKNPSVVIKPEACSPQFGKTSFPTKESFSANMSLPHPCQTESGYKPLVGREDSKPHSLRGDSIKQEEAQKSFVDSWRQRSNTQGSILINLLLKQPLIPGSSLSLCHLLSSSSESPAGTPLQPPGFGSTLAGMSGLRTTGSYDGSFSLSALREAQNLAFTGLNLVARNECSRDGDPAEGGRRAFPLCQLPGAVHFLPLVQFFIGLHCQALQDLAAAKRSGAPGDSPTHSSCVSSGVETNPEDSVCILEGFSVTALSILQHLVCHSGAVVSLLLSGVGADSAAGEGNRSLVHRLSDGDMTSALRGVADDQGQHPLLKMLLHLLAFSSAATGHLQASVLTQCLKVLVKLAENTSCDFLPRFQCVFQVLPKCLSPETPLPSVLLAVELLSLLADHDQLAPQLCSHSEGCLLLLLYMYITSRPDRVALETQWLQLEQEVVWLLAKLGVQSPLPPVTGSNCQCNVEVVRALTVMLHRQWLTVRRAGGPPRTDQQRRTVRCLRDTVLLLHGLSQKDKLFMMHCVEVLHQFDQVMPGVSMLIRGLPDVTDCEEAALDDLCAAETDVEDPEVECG
# ASV-based vector = assay: Stable transduction of HeLa cells by ASV neo vector; format: cell-based; details: 24 h, read-out: IC50, reduction in number of cells stably transduced by ASV vector
# Method: (§1) Infection of HeLa Cells. […] The virus-containing medium was then replaced with fresh medium. Two to seven days after infection with the HIV-1 vector (as indicated) cells were stained using a β-galactosidase assay (Stratagene). Cells were selected for G418 resistance one day after infection with the ASV vector by addition of 1 mg/ml G418.
# (§2) After infection with ASV, G418 was also added at this time.
# HIV-1-based vector [8] = assay: Stable transduction of HeLa cells by HIV-1-lacZ vector; format: cell-based; details: Human immunodeficiency virus 1, HeLa, read-out: IC50, reduction in number of cells stably transduced by HIV-1 vector
# Method: as §1, §2
# Transduction was measured five to six days later by the presence of β-galactosidase positive colonies.
# DNA-PK = DNA-PK (Homo sapiens, UniProt P78527); details: cited from earlier work
# [9] = test system: retroviral transduction of HeLa cells; assay: Retroviral transduction of HeLa cells treated with mTOR inhibitor
# Source text: To determine if mTOR is involved in retroviral transduction, the inventors infected HeLa cells and treated them with the mTOR-specific inhibitor, rapamycin.
# [10] = test system: BRCA1 phosphorylated on serine 1423; assay: BRCA1 serine 1423 phosphorylation in PBMCs (Western blot); format: cell-based, human
# Source text: (§3) To establish if HIV-1 infection triggers the DNA damage response that is controlled by these kinases, human PBMCs were infected with the HIV-1 NL4-3 strain and analyzed by Western blotting to determine the levels of phosphorylation by ATM and ATR in these cells. Western blotting was sequentially performed with an anti pBRCA1 (Bethyl Laboratories, Montgomery, Tex., cat # A300-008A) or an anti-Ku86 antibody (Santa Cruz, sc-9034, Santa Cruz, Calif.). For detection of the p53 phosphorylated on serine 15 residue, Western blotting was performed with a rabbit polyclonal antibody from Cell Signaling Technology, Beverly, Mass. (cat # 9284S).
# [11] = test system: p53 phosphorylated on serine 15; assay: p53 serine 15 phosphorylation in NL4-3-infected PBMCs (Western blot); format: cell-based, human; details: 24 hrs
# Source text: as §3
# [12] = cited from earlier work
# [13] = test system: macrophage-tropic (R5) HIV-1 strain, ADA; assay: HIV-1 ADA replication in PBMCs (p24 antigen); format: cell-based; details: Human immunodeficiency virus 1, PBMC, p24 at 6 days post-infection
# PCNA [14] = assay: PCNA Western blot in nocodazole-treated 293T cells; format: cell-based; details: nocodazole 1 μg/ml, 24 hrs
# Method: To determine the efficiency of the nocodazole arrest, cells were assayed for expression of the proliferating-cell nuclear antigen (PCNA) by Western blotting with an anti-PCNA antibody. PCNA accumulates in cells as they enter S phase, but is rapidly degraded in other phases of the cell cycle. (Takase, K et al. Reversible G1 arrest induced by dimethyl sulfoxide in human lymphoid cell lines: kinetics of the arrest and expression of the cell cycle marker proliferating cell nuclear antigen in Raji cells. Cell Growth Differ 1992, 3:515-521).
# PCNA [15] = assay: PCNA Western blot in nocodazole-treated GM847/ATRkd cells; format: cell-based, human; details: nocodazole 1 μg/ml
# Method: GM847/ATRkd cells were plated at a density of 2×10^4 cells per well of 24-well plate, in the presence or absence of doxycycline (5 μg/ml) and nocodazole (1 μg/ml).
# To examine the role of ATR in growth-arrested cells, the GM847/ATRkd cells were treated with nocodazole in addition to doxycycline.
# HIV-1-based vector [16] = assay: Transduction of parental GM847 cells treated with doxycycline; format: cell-based
# Source text: To examine the role of ATR more directly, the inventors examined the efficiency of retroviral DNA integration and transduction in cells defective in ATR function. […] Cells that synthesize the dominant-negative ATRkd protein (doxycycline-inducible expression) are viable, but show deficiencies in DNA repair that are distinct from those in cells deficient in ATM.
# Because ATR was also implicated in the regulation of Vpr-induced G2/M arrest, transduction of ATRkd-expressing cells by the multiply attenuated HIV-1-based vector was also evaluated.
smiles,measurement,setting,value
"Cn1c(=O)c2c(ncn2C)n(C)c1=O [caffeine, 1,3,7-trimethylxanthine]",level of 2-LTR junctions,HIV-1 strain NL4-3,No significant inhibitory effect
same,effect on amount of viral DNA detected,ASV vector [1],only a modest effect
same,cytotoxicity,[2],no visible cytotoxicity
same,amount of reporter protein (neomycin phosphotransferase),[3],no reduction
same,drop in HIV-1 p24 antigen levels,HIV-1 NL4-3 (X4) strain,three
same,p24 antigen levels vs control,HIV-1 NL4-3 (X4) strain,reached the control level
same,decrease in HIV-1 p24 antigen vs NL4-3 infected control,HIV-1 NL4-3 (X4) strain,9 fold
same,inhibition of NL4-3 growth,HIV-1 NL4-3 (X4) strain,approximately 9 fold
same,inhibition of mTOR in vitro,mTOR,inhibits
same,inhibition at 4000 µM,ASV vector [4],88%
same,processing activity of HIV-1 integrase,HIV-1 integrase,unaffected
same,"transduction by multiply attenuated HIV-1-based vector (lacking vpr, vif, vpu, nef)","HIV-1-based vector [5]; 293T cells, dividing and nocodazole-arrested",inhibited
same,HIV-transduction of dividing cells,"HIV-1-based vector [5]; exponentially dividing 293T cells, caffeine 24 h, dose-dependent",inhibited
same,HIV-transduction of nocodazole-arrested cells,"HIV-1-based vector [5]; nocodazole-arrested 293T cells, caffeine 24 h, dose-dependent",inhibited
same,transduction of terminally differentiated primary human macrophages,HIV-1-based vector [6],inhibit
same,cellular cytotoxicity (XTT assay),PBMC,did not show any significant cellular cytotoxicity
same,IC50,ATM kinase,1000 to 2000 µM
same,formation of circle junctions,ASV vector [7]; 2 mM caffeine,not significantly affected
same,formation of circle junctions,ASV vector [7]; 4 mM caffeine,only a modest decrease
same,cytotoxicity,293T cells,No caffeine cytotoxicity
same,IC50,ATR kinase,1000 to 2000 µM
same,IC50,ASV-based vector,~800 µM
same,IC50,HIV-1-based vector [8],~1500 µM
same,sensitivity of DNA-PK to caffeine,DNA-PK,not sensitive
CO[C@H]1C[C@@H]2CC[C@@H](C)[C@@](O)(O2)C(=O)C(=O)N2CCCC[C@H]2C(=O)O[C@H]([C@H](C)C[C@@H]2CC[C@@H](O)[C@H](OC)C2)CC(=O)[C@H](C)/C=C(\C)[C@@H](O)[C@@H](OC)C(=O)[C@H](C)C[C@H](C)/C=C/C=C/C=C/1C [rapamycin],effect on retroviral transduction,[9],no effect
"Cn1c(=O)c2[nH]cnc2n(C)c1=O [theophylline, 1,3-dimethylxanthine]",BRCA1 phosphorylation (serine 1423),"[10]; NL4-3-infected PBMCs, 24 hrs",suppressed
same,basal phosphorylation of BRCA1 on serine 1423,"[10]; PBMCs, basal",failed to suppress
same,p53 phosphorylation (serine 15),[11],suppressed
same,drop in HIV-1 p24 antigen levels,HIV-1 NL4-3 (X4) strain,four-fold
same,p24 antigen levels vs control,HIV-1 NL4-3 (X4) strain,reached the control level
same,decrease in HIV-1 p24 antigen vs NL4-3 infected control,HIV-1 NL4-3 (X4) strain,9 fold
same,inhibition of NL4-3 growth,HIV-1 NL4-3 (X4) strain,~5 fold
same,cellular cytotoxicity (XTT assay),PBMC,did not show any significant cellular cytotoxicity
same,concentration reached in plasma of theophylline-treated patients,[12],28 to 110 µM
same,IC50,[13],~60 µM
COC(=O)Nc1nc2ccc(C(=O)c3cccs3)cc2[nH]1 [nocodazole],amount of PCNA relative to exponentially dividing cells,PCNA [14],≤ 5%
same,amount of PCNA relative to exponentially dividing cells,PCNA [15],10-20%
C[C@H]1c2cccc(O)c2C(=O)C2=C(O)[C@]3(O)C(=O)C(C(N)=O)=C(O)[C@@H](N(C)C)[C@@H]3[C@@H](O)[C@@H]21 [doxycycline],effect on transduction of parental cells,HIV-1-based vector [16],no effect
"Cn1cnc2c1c(=O)[nH]c(=O)n2C [theobromine, 3,7-dimethylxanthine]",inhibition of NL4-3 growth,HIV-1 NL4-3 (X4) strain,~2 fold
same,IC50,[13],~100 µM
